Test results published in patent US20100092456A1, “METHODS OF TREATMENT” (priority 2006, published 2010).

How the values were obtained:
PIKfyve = PIKfyve (Homo sapiens, UniProt Q9Y2I7); settings: background statement; cited from earlier work
MEL cells = test: MEL cell viability and cell cycle profile; type: cell-based, Murine
Method: Ethanol fixed cells were incubated with prodium iodide (20 μg/ml) and RNAse (10 μg/ml) before cell cycle analysis by flow cytometry. Proteins were analysed by standard western blotting procedures employing the following antibodies: anti-tubulin and anti-flag (both from Sigma), anti-actin (Chemicon International), anti-histone 4 (Upstate Biotechnology), anti-phospho p54, anti-phospho p46, anti-phospho p38, total p54, total p46 and total p38 (all from Cell Signalling Technology) anti-ING2, anti EGFP (Clontech), anti-type II β PIP kinase, anti-GST and anti-myc (both generated in house).
To investigate the sub-nuclear localisation of UV-induced nuclear PtdInsPs, we fractionated nuclei to generate nucleoplasm (containing nuclear membranes and soluble nuclear material) and the chromatin enriched fraction (CEF) (FIG. 1c inset). […] Thus, the PtdInsP pool present in the CEF is a target for regulation in response to cellular stress.

ING2 = test: Western blot of endogenous ING2 associated with the CEF of MEL cells; type: cell-based, Murine; settings: MEL cells; 200 J/m UV; NAC 5 mM 4 hours, wortmannin 200 nM and 5 μM, curcumin 100 μM
Method: FIG. 4. A) Exponentially growing MEL cells were irradiated with either 200 J/m of UV light or 10 Gy of gamma radiation. After 30 minutes the CEF was isolated and the subjected to SDS-PAGE followed by transfer of the separated proteins to a nitrocellulose membrane. Western blotting for endogenous ING2 and histone 4 proteins was performed. Representative western blots are shown. B) Exponentially growing MEL cells were incubated in the absence or presence of N-acetyl cysteine (NAC) (5 mM) for 4 hours prior to a control irradiation or exposed to 200 J/m of UV light before the isolation of the CEF. Differentiated MEL cells were incubated in the absence or presence of H2O2 (500 μM) for 15 minutes prior to the isolation of the CEF. Proteins in the CEF were subjected to SDS-PAGE followed by transfer to a nitrocellulose membrane. Western blotting for endogenous ING2 and histone 4 proteins was performed. Representative western blots are shown. C) MEL cells were preincubated with either vehicle, wortmannin (200 nM and 5 μM) or curcumin (100 μM) were irradiated with 200 J/m of UV light. After 30 minutes the CEF was isolated and proteins were subjected to SDS-PAGE followed by transfer to a nitrocellulose membrane. Western blotting for endogenous ING2 and histone 4 proteins was performed. Representative western blots are shown. D) The CEF from transiently transfected MEL cells with either pSuper or pSuper-IIβRNAi was prepared. Proteins in the CEF were subjected to SDS-PAGE followed by transfer to a nitrocellulose membrane. […] Proteins were analysed by standard western blotting procedures employing the following antibodies: anti-tubulin and anti-flag (both from Sigma), anti-actin (Chemicon International), anti-histone 4 (Upstate Biotechnology), anti-phospho p54, anti-phospho p46, anti-phospho p38, total p54, total p46 and total p38 (all from Cell Signalling Technology) anti-ING2, anti EGFP (Clontech), anti-type II β PIP kinase, anti-GST and anti-myc (both generated in house).

[1] = tested on: PtdIns4P and PtdIns5P in the CEF of MEL cells; test: Mass assay of PtdIns4P and PtdIns5P in the CEF of MEL cells with or without UV irradiation; type: cell-based, Murine; settings: MEL cells preincubated with wortmannin (200 nM and 5 μM) or curcumin (100 μM); 200 J/m UV; CEF after 30 minutes
Method: (§1) D) MEL cells were preincubated with either vehicle (DMSO) or wortmannin (200 nM and 5 μM) were irradiated with 200 J/m of UV light. After 30 minutes the CEF was isolated and a mass assay was used to determine the levels of PtdIns4P and PtdIns5P (expressed as % of control non-irradiated cells. The results are calculated from 3 independent experiments).
as §1, with “E)” for “D)”, “(ethanol)” for “(DMSO)”, “curcumin (100” for “wortmannin (200 nM and 5”, “irradiation.” for “light.”, “control, non curcumin-treated nor non UV-irradiated” for “control non-irradiated”
C) MEL cells were transiently transfected to express EGFP, EGFP-type II b PIP kinase and EGFP-IpgD/IpgE. In addition MEL cells were transfected with pSuper-IIβRNAi. […] A mass assay was used to determine the level of PtdIns5P (expressed as % of control non-irradiated cells. The results are calculated from 3 independent experiments). […]
MEL cells were washed, twice in ice cold PBS before their fractionation using a detergent-free hypotonic buffer. […] The protein content of all fractions was determined using the Bradford reagent (BioRad). PtdIns4P and PtdIns5P were measured using in vitro mass assays employing recombinant type I and type II PIP kinases, respectively. […]

PIKfyve, sequence (Q9Y2I7 whole entry, species assumed): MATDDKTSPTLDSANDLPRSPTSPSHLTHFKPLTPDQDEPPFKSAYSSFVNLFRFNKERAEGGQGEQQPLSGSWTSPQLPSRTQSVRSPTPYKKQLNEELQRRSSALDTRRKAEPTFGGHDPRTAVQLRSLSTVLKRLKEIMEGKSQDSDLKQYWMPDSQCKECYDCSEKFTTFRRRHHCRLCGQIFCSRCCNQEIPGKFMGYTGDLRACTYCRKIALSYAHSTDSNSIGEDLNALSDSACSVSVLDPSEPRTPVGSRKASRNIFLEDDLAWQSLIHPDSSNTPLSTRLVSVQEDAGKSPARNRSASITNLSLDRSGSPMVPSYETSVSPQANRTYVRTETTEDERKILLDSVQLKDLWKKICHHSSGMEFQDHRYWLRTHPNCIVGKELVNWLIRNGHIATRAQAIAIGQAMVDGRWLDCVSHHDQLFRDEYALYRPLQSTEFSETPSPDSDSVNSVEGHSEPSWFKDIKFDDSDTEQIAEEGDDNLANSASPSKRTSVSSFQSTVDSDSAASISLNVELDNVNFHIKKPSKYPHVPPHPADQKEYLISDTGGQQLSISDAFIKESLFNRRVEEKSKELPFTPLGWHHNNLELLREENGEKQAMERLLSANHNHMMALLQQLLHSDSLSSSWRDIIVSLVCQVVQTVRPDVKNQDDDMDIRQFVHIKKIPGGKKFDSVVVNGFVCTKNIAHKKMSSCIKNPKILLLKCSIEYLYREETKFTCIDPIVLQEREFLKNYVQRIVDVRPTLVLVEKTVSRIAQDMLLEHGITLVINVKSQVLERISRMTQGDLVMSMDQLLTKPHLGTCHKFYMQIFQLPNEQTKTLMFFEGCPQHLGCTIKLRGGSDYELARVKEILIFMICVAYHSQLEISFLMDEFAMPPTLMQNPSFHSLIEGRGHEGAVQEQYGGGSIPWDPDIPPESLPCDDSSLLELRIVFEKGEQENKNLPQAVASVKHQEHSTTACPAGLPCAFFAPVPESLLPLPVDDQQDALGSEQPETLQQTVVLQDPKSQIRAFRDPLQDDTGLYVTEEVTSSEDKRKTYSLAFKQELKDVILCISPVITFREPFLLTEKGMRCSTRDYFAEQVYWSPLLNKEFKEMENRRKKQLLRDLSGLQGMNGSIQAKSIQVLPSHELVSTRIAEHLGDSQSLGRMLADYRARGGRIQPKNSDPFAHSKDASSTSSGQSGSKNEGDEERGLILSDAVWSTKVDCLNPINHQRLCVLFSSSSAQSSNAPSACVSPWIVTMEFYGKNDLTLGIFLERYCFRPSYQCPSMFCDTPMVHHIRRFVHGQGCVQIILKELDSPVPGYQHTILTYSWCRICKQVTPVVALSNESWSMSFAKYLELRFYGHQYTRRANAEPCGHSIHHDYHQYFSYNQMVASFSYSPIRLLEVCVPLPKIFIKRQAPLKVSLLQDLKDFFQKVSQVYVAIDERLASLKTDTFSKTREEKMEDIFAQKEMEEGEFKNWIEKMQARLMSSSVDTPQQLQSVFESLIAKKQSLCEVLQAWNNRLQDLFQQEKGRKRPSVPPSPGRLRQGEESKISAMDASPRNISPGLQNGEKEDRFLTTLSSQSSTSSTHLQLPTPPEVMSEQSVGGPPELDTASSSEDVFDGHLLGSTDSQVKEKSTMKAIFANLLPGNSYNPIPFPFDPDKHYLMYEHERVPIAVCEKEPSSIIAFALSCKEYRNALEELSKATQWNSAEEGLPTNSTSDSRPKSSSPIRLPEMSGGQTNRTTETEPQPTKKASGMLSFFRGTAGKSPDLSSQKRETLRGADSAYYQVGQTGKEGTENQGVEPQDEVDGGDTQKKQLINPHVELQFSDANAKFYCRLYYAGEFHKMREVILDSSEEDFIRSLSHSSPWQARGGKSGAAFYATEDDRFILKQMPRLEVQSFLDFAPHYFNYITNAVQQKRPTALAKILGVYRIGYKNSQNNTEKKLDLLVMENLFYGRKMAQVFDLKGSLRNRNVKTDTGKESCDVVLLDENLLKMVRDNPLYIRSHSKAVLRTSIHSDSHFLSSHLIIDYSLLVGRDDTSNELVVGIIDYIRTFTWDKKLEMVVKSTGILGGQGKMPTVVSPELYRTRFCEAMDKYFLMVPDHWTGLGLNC

COc1cc(/C=C/C(=O)CC(=O)/C=C/c2ccc(O)c(OC)c2)ccc1O [curcumin]
inhibition of PIKfyve (PIKfyve): able to inhibit
effect on MEL cell viability (MEL cells): no effect
effect on the cell cycle profile (MEL cells; MEL cells, compound alone): no effect
UV-induced translocation of endogenous ING2 to the CEF (ING2): completely inhibited
UV light-induced accumulation of PtdIns4P [1]: inhibited
UV light-induced accumulation of PtdIns5P [1]: inhibited
